Laboratory results: paper PMC3741380, “The N-Terminally Truncated µ3 and µ3-Like Opioid Receptors Are Transcribed from a Novel Promoter Upstream of Exon 2 in the Human OPRM1 Gene” (PLoS ONE, 2013)

Target: T1, hMOR-1 (Homo sapiens, UniProt P35372)
T1 construct: gene OPRM1; classical 7TM splice variant, C-terminal GFP fusion kept (pcDNA3-GFP), stably expressed in HEK 293 cells
Assay: cell-based
Description: inhibition of forskolin-stimulated cAMP accumulation, [3H]-cAMP competition assay on hMOR-1

T1 sequence (P35372 whole entry, the tested form may be a part, canonical isoform): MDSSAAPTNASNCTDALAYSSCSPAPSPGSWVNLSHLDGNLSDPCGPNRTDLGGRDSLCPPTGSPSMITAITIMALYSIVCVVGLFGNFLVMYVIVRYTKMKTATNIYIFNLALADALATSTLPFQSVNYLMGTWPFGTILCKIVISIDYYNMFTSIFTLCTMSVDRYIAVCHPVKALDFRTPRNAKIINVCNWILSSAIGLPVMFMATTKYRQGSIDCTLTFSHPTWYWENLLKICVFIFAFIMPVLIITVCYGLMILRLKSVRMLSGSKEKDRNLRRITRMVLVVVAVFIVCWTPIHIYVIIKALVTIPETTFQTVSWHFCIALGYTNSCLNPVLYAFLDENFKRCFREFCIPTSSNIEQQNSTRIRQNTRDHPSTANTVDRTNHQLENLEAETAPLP

CN1CC[C@]23c4c5ccc(O)c4O[C@H]2[C@@H](O[C@@H]2O[C@H](C(=O)O)[C@@H](O)[C@H](O)[C@H]2O)C=C[C@H]3[C@H]1C5 [M6G]
IC50: 27.3 ± 11.2 nM
